Among the data in ChEMBL document CHEMBL6103579, “Antiproliferative activity of selenium-enriched coumarin derivatives on the SK-N-SH neuroblastoma cell line: Mechanistic insights” (Eur J Med Chem, 2025) are Activity values, retold here.

For data set [1], the system named is N2a. Kind of data set: Antitumor activity against mouse N2a cells implanted in female ICR mouse model assessed as change in body weight at 20 mg/kg, ip measured upto 8 days (reference value: 25.54 +/-2.19 g). The conditions noted are these: time <= 8 day. In kind it is functional.
Data set [2] can be described thus: Toxicity in female ICR mouse assessed as change in organ coefficient of lung at 20 mg/kg, ip […] (reference value: 0.007+/-0.001). The conditions noted are these: in vivo. In kind it is organism-based.
Data set [3] can be described thus: Toxicity in female ICR mouse assessed as change in organ coefficient of spleen at 20 mg/kg, ip […] (reference value: 0.006+/-0.002). The format is organism-based. The note with it: in vivo.
The nature of data set [4]: Toxicity in female ICR mouse assessed as change in organ coefficient of heart at 20 mg/kg, ip […] (reference value: 0.006+/-0.002). The format is organism-based. The conditions noted are these: in vivo.
Data set [5] relates to N2a. Description: Antitumor activity against mouse N2a cells implanted in female ICR mouse model assessed as tumor inhibition rate at 20 mg/kg, ip measured upto 8 days relative to control. The format is functional. More on the design: scale not given: the % may be the effect or the level left. The note with it: time <= 8 day.
Data set [6] is described as follows: Toxicity in female ICR mouse assessed as change in organ coefficient of liver at 20 mg/kg, ip […] (reference value: 0.058+/-0.010). The conditions noted are these: in vivo. The format is organism-based.
The nature of data set [7]: Toxicity in female ICR mouse assessed as change in organ coefficient of kidney at 20 mg/kg, ip […] (reference value: 0.007). The format is organism-based. The conditions noted are these: in vivo.
The subject of data set [8] is N2a. Description: Antitumor activity against mouse N2a cells implanted in female ICR mouse model assessed as reduction in tumor weight at 20 mg/kg, ip measured upto 8 days (reference value: 0.9 +/-0.26 g). The note with it: time <= 8 day. The format is functional.

On to `O=P1(N(CCCl)CCCl)NCCCO1` (stereo not drawn) [CYCLOPHOSPHAMIDE ANHYDROUS], for which the Activity is 27.2 g with N2a [1]; 0.007 in data set [2]; 0.004 in data set [3]; 0.006 in data set [4]; 64.6% with N2a [5]; 0.059 in data set [6]. Also, the Activity is given as 0.007 in data set [7] and 0.32 g with N2a [8].
